# Values joined by “and” are separate entries in the source; they are usually repeats but may differ in a detail not shown here. Equal values may be shown once.
# System: BDF1 mice, Adenocarcinoma 755 s.c., tumor weight T/C
# Experiment: NCI In Vivo Anticancer Drug Screen. Data for tumor model Adenocarcinoma 755 (subcutaneous) in B6D2F1 (BDF1) mice
# Settings: endpoint: mean tumor weight, higher = larger tumour
# In short: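 Transplantable tumor implanted; mice dosed with compound or vehicle; survival or tumor size recorded; ratio of treated to vehicle control reported.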
# [1] = dose: 25.0 mg/kg/injection, schedule: Q01DX011 (ip), vehicle: carboxymethylcellulose (CMC)
# [2] = dose: 45.0 mg/kg/injection, schedule: Q01DX011 (ip), vehicle: carboxymethylcellulose (CMC)
# [3] = dose: 50.0 mg/kg/injection, schedule: Q01DX011 (ip), vehicle: carboxymethylcellulose (CMC)
# [4] = dose: 100.0 mg/kg/injection, schedule: Q01DX011 (ip), vehicle: carboxymethylcellulose (CMC)
# [5] = dose: 112.0 mg/kg/injection, schedule: Q01DX011 (ip), vehicle: carboxymethylcellulose (CMC)
# [6] = dose: 225.0 mg/kg/injection, schedule: Q01DX011 (ip), vehicle: carboxymethylcellulose (CMC)
# [7] = dose: 62.0 mg/kg/injection, schedule: Q01DX011 (ip), vehicle: carboxymethylcellulose (CMC)
compound,measurement,setting,value
C[C@H]1C(=O)O[C@@H]2CCN3CC=C(COC(=O)[C@](C)(O)[C@@]1(C)O)[C@H]23,T/C,"dose: 12.5 mg/kg/injection, schedule: Q#A X022 (ip), vehicle: carboxymethylcellulose (CMC)",70 % of control
same,T/C,"dose: 12.5 mg/kg/injection, schedule: Q#A X022 (oral), vehicle: carboxymethylcellulose (CMC)",65 % of control
same,T/C,"dose: 22.5 mg/kg/injection, schedule: Q01DX011 (ip), vehicle: carboxymethylcellulose (CMC)",45 % of control
same,T/C,[1],74 % of control
same,T/C,"dose: 25.0 mg/kg/injection, schedule: Q#A X022 (ip), vehicle: carboxymethylcellulose (CMC)",69 % of control
same,T/C,"dose: 25.0 mg/kg/injection, schedule: Q#A X022 (oral), vehicle: carboxymethylcellulose (CMC)",44 % of control
same,T/C,[2],34 % of control
same,T/C,[3],61 % of control
same,T/C,"dose: 50.0 mg/kg/injection, schedule: Q01DX011 (oral), vehicle: saline",36 % of control
same,T/C,"dose: 50.0 mg/kg/injection, schedule: Q#A X022 (ip), vehicle: carboxymethylcellulose (CMC)",22 % of control
same,T/C,"dose: 50.0 mg/kg/injection, schedule: Q#A X022 (oral), vehicle: carboxymethylcellulose (CMC)",7 % of control
same,T/C,"dose: 75.0 mg/kg/injection, schedule: Q03DX004 (ip), vehicle: carboxymethylcellulose (CMC)",101 % of control
same,T/C,"dose: 90.0 mg/kg/injection, schedule: Q01DX011 (ip), vehicle: carboxymethylcellulose (CMC)",15 % of control
same,T/C,[4],42 % of control
same,T/C,"dose: 100.0 mg/kg/injection, schedule: Q01DX011 (oral), vehicle: carboxymethylcellulose (CMC)",38 % of control
same,T/C,"dose: 100.0 mg/kg/injection, schedule: Q01DX011 (oral), vehicle: saline",27 % of control
same,T/C,"dose: 100.0 mg/kg/injection, schedule: Q#A X022 (ip), vehicle: carboxymethylcellulose (CMC)",15 % of control
same,T/C,"dose: 100.0 mg/kg/injection, schedule: Q#A X022 (oral), vehicle: carboxymethylcellulose (CMC)",7 % of control
same,T/C,"dose: 150.0 mg/kg/injection, schedule: Q03DX004 (ip), vehicle: carboxymethylcellulose (CMC)",46 % of control
same,T/C,"dose: 180.0 mg/kg/injection, schedule: Q01DX011 (ip), vehicle: carboxymethylcellulose (CMC)",7 % of control
same,T/C,"dose: 180.0 mg/kg/injection, schedule: Q01DX011 (ip), vehicle: methylcellulose (MC)",24 % of control
same,T/C,"dose: 200.0 mg/kg/injection, schedule: Q01DX011 (ip), vehicle: carboxymethylcellulose (CMC)",13 % of control
same,T/C,"dose: 200.0 mg/kg/injection, schedule: Q01DX011 (oral), vehicle: carboxymethylcellulose (CMC)",14 % of control
same,T/C,"dose: 200.0 mg/kg/injection, schedule: Q01DX011 (oral), vehicle: saline",4 % of control
same,T/C,"dose: 300.0 mg/kg/injection, schedule: Q03DX004 (ip), vehicle: carboxymethylcellulose (CMC)",24 % of control
same,T/C,"dose: 400.0 mg/kg/injection, schedule: Q01DX011 (oral), vehicle: carboxymethylcellulose (CMC)",6 % of control
same,T/C,"dose: 400.0 mg/kg/injection, schedule: Q01DX011 (oral), vehicle: saline",5 % of control
same,T/C,"dose: 600.0 mg/kg/injection, schedule: Q03DX004 (ip), vehicle: carboxymethylcellulose (CMC)",16 % of control
COc1cc(C(=O)[O][Hg][CH2]C2COC([CH2][Hg][O]C(=O)c3cc(OC)c(OC)c(OC)c3)CO2)cc(OC)c1OC (stereo unspecified),T/C,[1],61 % of control
CCOC(=O)CN=NNc1nc[nH]c1C(N)=O,T/C,"dose: 56.0 mg/kg/injection, schedule: Q01DX011 (ip), vehicle: carboxymethylcellulose (CMC)",58 % of control
same,T/C,[5],106 % of control
same,T/C,"dose: 175.0 mg/kg/injection, schedule: Q01DX011 (ip), vehicle: carboxymethylcellulose (CMC)",81 % of control
same,T/C,[6],27 % of control
same,T/C,"dose: 350.0 mg/kg/injection, schedule: Q01DX011 (ip), vehicle: carboxymethylcellulose (CMC)",58 % of control
CCCCCCCCCCCCCCCC[n+]1ccccc1,T/C,"dose: 0.12 mg/kg/injection, schedule: Q01DX011 (ip), vehicle: water",89 % of control
same,T/C,"dose: 0.25 mg/kg/injection, schedule: Q01DX011 (ip), vehicle: water",79 % of control
same,T/C,"dose: 0.5 mg/kg/injection, schedule: Q01DX011 (ip), vehicle: water",89 % of control
Cn1c(=O)c2[nH]c(N/N=C/c3ccc(F)cc3)nc2n(C)c1=O,T/C,"dose: 30.0 mg/kg/injection, schedule: Q01DX011 (ip), vehicle: carboxymethylcellulose (CMC)",93 % of control
same,T/C,"dose: 60.0 mg/kg/injection, schedule: Q01DX011 (ip), vehicle: carboxymethylcellulose (CMC)",91 % of control
same,T/C,"dose: 120.0 mg/kg/injection, schedule: Q01DX011 (ip), vehicle: carboxymethylcellulose (CMC)",114 % of control
Cn1cnc2c(SCc3ccccc3)ncnc21,T/C,"dose: 63.0 mg/kg/injection, schedule: Q01DX011 (ip), vehicle: carboxymethylcellulose (CMC)",3 % of control
same,T/C,"dose: 126.0 mg/kg/injection, schedule: Q01DX011 (ip), vehicle: carboxymethylcellulose (CMC)",1 % of control
same,T/C,"dose: 252.0 mg/kg/injection, schedule: Q01DX011 (ip), vehicle: carboxymethylcellulose (CMC)",1 % of control
COc1cc(-c2ccc(N=Nc3c(O)ccc4ccccc34)c(OC)c2)ccc1N=Nc1ccc2c(S(=O)(=O)O)cc(S(=O)(=O)O)c(N)c2c1O,T/C,[7],63 % of control and 75 % of control
same,T/C,[5],60 % of control and 79 % of control
same,T/C,[6],39 % of control and 64 % of control
same,T/C,"dose: 450.0 mg/kg/injection, schedule: Q01DX011 (ip), vehicle: carboxymethylcellulose (CMC)",29 % of control
CCCCSc1ncnc2nc[nH]c12,T/C,"dose: 0.25 mg/kg/injection, schedule: Q01DX011 (ip), vehicle: carboxymethylcellulose (CMC)",119 % of control
same,T/C,"dose: 1.0 mg/kg/injection, schedule: Q01DX011 (ip), vehicle: carboxymethylcellulose (CMC)",121 % of control
same,T/C,"dose: 4.0 mg/kg/injection, schedule: Q01DX011 (ip), vehicle: carboxymethylcellulose (CMC)",62 % of control
same,T/C,"dose: 15.0 mg/kg/injection, schedule: Q01DX011 (ip), vehicle: carboxymethylcellulose (CMC)",4 % of control and 9 % of control
same,T/C,[7],4 % of control
Nc1nc(=S)c2ncn(C3OC(COC(=O)c4ccc(Cl)cc4)C(OC(=O)c4ccc(Cl)cc4)C3OC(=O)c3ccc(Cl)cc3)c2[nH]1 (stereo unspecified),T/C,"dose: 0.88 mg/kg/injection, schedule: Q01DX011 (ip), vehicle: carboxymethylcellulose (CMC)",94 % of control
same,T/C,"dose: 1.75 mg/kg/injection, schedule: Q01DX011 (ip), vehicle: carboxymethylcellulose (CMC)",65 % of control
same,T/C,"dose: 3.5 mg/kg/injection, schedule: Q01DX011 (ip), vehicle: carboxymethylcellulose (CMC)",102 % of control
same,T/C,"dose: 6.0 mg/kg/injection, schedule: Q01DX011 (ip), vehicle: carboxymethylcellulose (CMC)",72 % of control
same,T/C,"dose: 10.0 mg/kg/injection, schedule: Q01DX011 (ip), vehicle: carboxymethylcellulose (CMC)",6 % of control
same,T/C,"dose: 12.0 mg/kg/injection, schedule: Q01DX011 (ip), vehicle: carboxymethylcellulose (CMC)",23 % of control
same,T/C,"dose: 16.0 mg/kg/injection, schedule: Q01DX011 (ip), vehicle: carboxymethylcellulose (CMC)",1 % of control
same,T/C,[3],2 % of control and 3 % of control
CCN(CC)CCCC(C)Nc1c2ccc(Cl)cc2nc2ccc(OC)cc12 (stereo unspecified),T/C,[1],68 % of control
same,T/C,[3],62 % of control
same,T/C,[4],52 % of control
CC(C)Cn1cnc2c(SCc3ccccc3[N+](=O)[O-])nc(N)nc21,T/C,"dose: 37.5 mg/kg/injection, schedule: Q01DX011 (ip), vehicle: methylcellulose (MC)",42 % of control
same,T/C,"dose: 75.0 mg/kg/injection, schedule: Q01DX011 (ip), vehicle: methylcellulose (MC)",97 % of control
same,T/C,"dose: 150.0 mg/kg/injection, schedule: Q01DX011 (ip), vehicle: methylcellulose (MC)",62 % of control
same,T/C,"dose: 300.0 mg/kg/injection, schedule: Q01DX011 (ip), vehicle: methylcellulose (MC)",14 % of control
COc1ccc2c(c1)CCC(c1ccccc1)=C2c1ccc(OCCN2CCCC2)cc1,T/C,"dose: 3.0 mg/kg/injection, schedule: Q01DX011 (sc), vehicle: steriod suspending solution",86 % of control
same,T/C,"dose: 6.0 mg/kg/injection, schedule: Q01DX011 (sc), vehicle: steriod suspending solution",82 % of control
same,T/C,"dose: 12.0 mg/kg/injection, schedule: Q01DX011 (sc), vehicle: steriod suspending solution",34 % of control
same,T/C,"dose: 25.0 mg/kg/injection, schedule: Q01DX011 (sc), vehicle: steriod suspending solution",26 % of control
CCCCn1cnc2c(SCc3cccc(F)c3)nc(N)nc21,T/C,"dose: 3.1 mg/kg/injection, schedule: Q01DX011 (ip), vehicle: methylcellulose (MC)",50 % of control
same,T/C,"dose: 6.25 mg/kg/injection, schedule: Q01DX011 (ip), vehicle: methylcellulose (MC)",61 % of control
same,T/C,"dose: 12.5 mg/kg/injection, schedule: Q01DX011 (ip), vehicle: methylcellulose (MC)",23 % of control
same,T/C,"dose: 25.0 mg/kg/injection, schedule: Q01DX011 (ip), vehicle: methylcellulose (MC)",1 % of control and 8 % of control
Cc1ccc(C)c(N=Nc2c(S(=O)(=O)O)cc3cc(NC(=O)Nc4ccc5c(O)c(N=Nc6ccc7cc(S(=O)(=O)O)ccc7c6)c(S(=O)(=O)O)cc5c4)ccc3c2O)c1,T/C,[2],59 % of control
